Article PMC9822066 (Molecules, 2022)
Values joined by “and” are separate entries in the source; they are usually repeats but may differ in a detail not shown here. Equal entries are not always repeated. Where two headings read alike, the source gives them in different places.

What was measured:
in vitro = details: PAMPA
hepatoma HepG2 cells = assay: Hepatotoxicity, MTS viability of HepG2 cells
Method: Doxorubicin (DX) at the concentration of 1 μM was used as the reference cytostatic drug.
A multifunctional reader EnSpire (PerkinElmer, Waltham, MA, USA) was used to measure the absorbance.

mice [1] = assay: Passive Avoidance Test, scopolamine-induced amnesia; type: in vivo; parameters: unit not given here; details: mean ± SEM
[2] = Metabolic stability in mouse liver microsomes; type: in vitro ADME
Method: The metabolic stability of 6 was investigated first in silico with the use of MetaSite 6.0.1 software.
The in silico prediction of the most possible metabolic pathways was conducted by MetaSite 6.0.1. Software (Molecular Discovery Ltd., Borehamwood, UK). […] The compound was incubated for 120 min at 37 °C in TRIS-HCl buffer (pH 7.4) with the addition of NADPH Regeneration System (Promega, Madison, WI, USA). The LC/MS analysis and MS/MS fragmentations were used as a tool for the determination of the substrate remaining and the structures of the metabolites.

eeAChE = target: T1, eeAChE (Electrophorus electricus, UniProt O42275); assay: Kinetic study of eeAChE inhibition (Lineweaver-Burk, Cornish-Bowden); type: biochemical, electric eel; details: substrate acetylthiocholine
T1 construct: purchased Sigma–Aldrich (Steinheim, Germany)
Method: (§1) The inhibitor was tested in the concentrations giving enzyme activities between 30% and 80%. For each concentration of the inhibitor, substrate (ATC/BTC) was added at concentrations of 0.3, 0.24, 0.18, 0.12, 0.06, and 0.04 mM in the wells. The stock solutions of ATC and BTC (0.5 mM) were prepared in water and diluted before use. Each experiment was performed in triplicate. Vmax and Km values of the Michaelis−Menten kinetics were calculated by nonlinear regression from substrate−velocity curves. Lineweaver–Burk and Cornish–Bowden plots were calculated using linear regression in GraphPad Prism 5 (GraphPad Software, San Diego, CA, USA).

[3] = test system: SH-SY5Y neuroblastoma cells; assay: Highest non-toxic concentration estimated before the neuroprotection assay; type: cell-based
Method: […]. however, it was statistically insignificant. […] Statistical significance was calculated against the number of necrotic cells in the H2O2-treated population. Additionally, the MTS test was performed in which the viability of cells was measured.

hMAO B = target: T2, hMAO B (Homo sapiens, UniProt P27338); assay: Fluorometric MAO assay, hMAO B inhibition; type: biochemical; details: mean ± SEM of two independent experiments, read-out: hMAO B %Inh. at 1 µM
T2 sequence (P27338 1-520): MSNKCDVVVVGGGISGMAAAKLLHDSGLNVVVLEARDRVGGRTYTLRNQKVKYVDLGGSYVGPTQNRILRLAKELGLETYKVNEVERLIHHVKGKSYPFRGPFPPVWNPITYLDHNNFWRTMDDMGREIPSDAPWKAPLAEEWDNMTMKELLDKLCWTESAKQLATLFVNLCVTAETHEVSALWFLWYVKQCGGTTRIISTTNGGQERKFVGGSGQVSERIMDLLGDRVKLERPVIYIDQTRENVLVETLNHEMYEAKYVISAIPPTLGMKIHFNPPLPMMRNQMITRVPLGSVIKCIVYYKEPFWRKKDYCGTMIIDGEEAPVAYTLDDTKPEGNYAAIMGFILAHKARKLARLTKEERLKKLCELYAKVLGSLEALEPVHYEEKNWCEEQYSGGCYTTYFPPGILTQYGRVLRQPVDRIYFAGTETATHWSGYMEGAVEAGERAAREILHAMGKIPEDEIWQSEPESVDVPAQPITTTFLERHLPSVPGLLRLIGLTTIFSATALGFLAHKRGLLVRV

[4] = target: BuChE from equine serum (eqBuChE) (Equus caballus, UniProt P81908); assay: biochemical; type: biochemical; details: mean ± SEM, triplicate independent experiments
[5] = target: T3, BuChE from human serum (hBuChE) (Homo sapiens, UniProt P06276); assay: Ellman's colorimetric assay, hBuChE inhibition; type: biochemical
T3 construct: Human BuChE from human serum was provided by Vivonics (Bedford, MA, USA); purchased Vivonics (Bedford, MA, USA); host or cells: human serum

human H3R = target: T4, human H3R (Homo sapiens, UniProt Q9Y5N1); assay: [3H]Nα-methylhistamine radioligand binding assay in HEK293 cells stably expressing hH3R
T4 construct: expressed in transfected cells; host or cells: HEK293
Method: Final compounds were tested for their H3R affinity in a radioligand binding assay using [^3H]N^α-methylhistamine as radioligand in HEK293 cells stably expressing hH3R [25]. […] Affinity to hH3R stably expressed in HEK293 cells was evaluated in a radioligand binding assay as described previously. […] The radioactivity was counted in a MicroBeta Trilux counter (PerkinElmer). Data were fitted to a one-site curve-fitting equation with Prism 6 (GraphPad Software, San Diego, CA, USA) and Ki values were calculated from IC50 values (from at least three experiments performed in duplicates) according to the Cheng−Prusoff equation [52].

[6] = target: T5, electric eel AChE (eeAChE) (Electrophorus electricus, UniProt O42275); assay: biochemical; details: mean ± SEM, triplicate independent experiments; read-out: eeAChE IC50
T5 construct: purchased Sigma–Aldrich (Steinheim, Germany)

[7] = PAMPA, triplicate
[8] = test system: SH-SY5Y neuroblastoma cells; assay: Neuroprotection against H2O2, MTS viability assay; type: cell-based; details: 10 µM, 300 µM H2O2, 24 h
[9] = test system: SH-SY5Y neuroblastoma cells; assay: Neuroprotection against H2O2, LDH necrosis assay; type: cell-based; details: 10 µM, 300 µM H2O2, 24 h
[10] = target: T6, human recombinant AChE (hAChE) (Homo sapiens, UniProt P22303); assay: Ellman's colorimetric assay, hAChE inhibition; type: biochemical
T6 construct: purchased Sigma–Aldrich (Steinheim, Germany)

mice [11] = assay: Formalin test; type: in vivo; details: Mus musculus, ip
eqBuChE = eqBuChE (Equus caballus, UniProt P81908); assay: Kinetic study of eqBuChE inhibition (Lineweaver-Burk, Cornish-Bowden); type: biochemical, equine; details: substrate butyrylthiocholine
Chain of eqBuChE (P81908 whole entry): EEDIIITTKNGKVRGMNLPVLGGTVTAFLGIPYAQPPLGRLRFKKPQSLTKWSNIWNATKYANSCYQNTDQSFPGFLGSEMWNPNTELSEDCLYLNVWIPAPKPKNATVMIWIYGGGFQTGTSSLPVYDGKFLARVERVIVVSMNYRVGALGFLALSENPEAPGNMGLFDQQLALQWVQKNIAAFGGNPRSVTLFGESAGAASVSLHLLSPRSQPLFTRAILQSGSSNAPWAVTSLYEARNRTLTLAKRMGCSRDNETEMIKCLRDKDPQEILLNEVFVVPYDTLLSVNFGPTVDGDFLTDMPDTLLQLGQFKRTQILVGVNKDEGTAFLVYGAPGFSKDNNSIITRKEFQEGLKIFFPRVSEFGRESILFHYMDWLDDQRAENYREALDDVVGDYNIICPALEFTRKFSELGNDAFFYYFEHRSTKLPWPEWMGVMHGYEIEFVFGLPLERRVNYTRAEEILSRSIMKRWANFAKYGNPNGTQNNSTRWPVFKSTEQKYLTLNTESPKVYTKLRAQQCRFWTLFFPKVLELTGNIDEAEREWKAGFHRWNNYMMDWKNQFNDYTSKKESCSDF
Method: as §1

T5 sequence (O42275 24-633): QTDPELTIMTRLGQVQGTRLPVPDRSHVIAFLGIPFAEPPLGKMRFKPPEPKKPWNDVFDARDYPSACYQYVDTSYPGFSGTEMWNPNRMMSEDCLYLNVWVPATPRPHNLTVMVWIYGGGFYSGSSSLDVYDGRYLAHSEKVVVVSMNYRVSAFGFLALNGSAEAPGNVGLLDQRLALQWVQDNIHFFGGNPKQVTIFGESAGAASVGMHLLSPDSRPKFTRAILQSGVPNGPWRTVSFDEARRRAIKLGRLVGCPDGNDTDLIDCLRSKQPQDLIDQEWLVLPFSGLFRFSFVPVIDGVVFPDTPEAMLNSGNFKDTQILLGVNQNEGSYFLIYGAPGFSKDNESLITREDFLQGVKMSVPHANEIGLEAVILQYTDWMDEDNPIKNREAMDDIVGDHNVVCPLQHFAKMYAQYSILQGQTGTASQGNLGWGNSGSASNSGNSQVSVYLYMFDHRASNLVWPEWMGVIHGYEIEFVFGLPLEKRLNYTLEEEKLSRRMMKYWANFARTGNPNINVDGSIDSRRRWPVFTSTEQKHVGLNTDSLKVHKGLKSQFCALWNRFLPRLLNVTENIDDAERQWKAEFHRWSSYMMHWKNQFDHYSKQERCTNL
T6 sequence (P22303 32-614): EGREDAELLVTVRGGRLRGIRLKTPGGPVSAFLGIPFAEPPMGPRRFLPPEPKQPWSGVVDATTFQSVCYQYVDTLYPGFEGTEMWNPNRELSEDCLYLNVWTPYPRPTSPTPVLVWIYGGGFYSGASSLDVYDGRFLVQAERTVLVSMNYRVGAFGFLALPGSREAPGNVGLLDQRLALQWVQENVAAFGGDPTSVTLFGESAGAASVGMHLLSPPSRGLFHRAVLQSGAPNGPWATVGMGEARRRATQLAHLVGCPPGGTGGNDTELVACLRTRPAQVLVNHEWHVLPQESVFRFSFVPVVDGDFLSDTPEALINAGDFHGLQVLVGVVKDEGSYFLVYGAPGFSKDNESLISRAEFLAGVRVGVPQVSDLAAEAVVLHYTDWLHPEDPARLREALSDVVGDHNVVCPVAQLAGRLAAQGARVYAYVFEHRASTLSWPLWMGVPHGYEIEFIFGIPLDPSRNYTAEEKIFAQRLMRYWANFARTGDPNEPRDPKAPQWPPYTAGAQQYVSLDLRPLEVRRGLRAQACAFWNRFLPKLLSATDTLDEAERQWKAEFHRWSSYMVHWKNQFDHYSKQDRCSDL
T3 sequence (P06276 29-602): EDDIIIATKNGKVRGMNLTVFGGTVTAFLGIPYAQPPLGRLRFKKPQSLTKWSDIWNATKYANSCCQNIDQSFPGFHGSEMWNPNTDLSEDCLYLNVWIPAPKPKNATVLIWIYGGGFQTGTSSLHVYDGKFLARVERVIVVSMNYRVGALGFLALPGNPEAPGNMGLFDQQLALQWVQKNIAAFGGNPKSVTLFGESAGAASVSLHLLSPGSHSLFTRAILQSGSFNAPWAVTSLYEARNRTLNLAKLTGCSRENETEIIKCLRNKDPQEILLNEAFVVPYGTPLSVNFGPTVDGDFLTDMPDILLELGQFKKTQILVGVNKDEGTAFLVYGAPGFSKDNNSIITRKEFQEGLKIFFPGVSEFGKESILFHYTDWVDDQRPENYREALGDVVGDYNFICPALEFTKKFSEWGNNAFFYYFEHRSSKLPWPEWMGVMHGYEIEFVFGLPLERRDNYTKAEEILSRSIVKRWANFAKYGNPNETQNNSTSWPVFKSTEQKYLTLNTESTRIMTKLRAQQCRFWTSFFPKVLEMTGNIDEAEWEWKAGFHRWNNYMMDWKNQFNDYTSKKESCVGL
Chain of BuChE from equine serum (eqBuChE) (P81908 whole entry): as the sequence (P81908 whole entry) above
T1 sequence (O42275 24-633): as the sequence (O42275 24-633) above
T4 sequence (Q9Y5N1 whole entry): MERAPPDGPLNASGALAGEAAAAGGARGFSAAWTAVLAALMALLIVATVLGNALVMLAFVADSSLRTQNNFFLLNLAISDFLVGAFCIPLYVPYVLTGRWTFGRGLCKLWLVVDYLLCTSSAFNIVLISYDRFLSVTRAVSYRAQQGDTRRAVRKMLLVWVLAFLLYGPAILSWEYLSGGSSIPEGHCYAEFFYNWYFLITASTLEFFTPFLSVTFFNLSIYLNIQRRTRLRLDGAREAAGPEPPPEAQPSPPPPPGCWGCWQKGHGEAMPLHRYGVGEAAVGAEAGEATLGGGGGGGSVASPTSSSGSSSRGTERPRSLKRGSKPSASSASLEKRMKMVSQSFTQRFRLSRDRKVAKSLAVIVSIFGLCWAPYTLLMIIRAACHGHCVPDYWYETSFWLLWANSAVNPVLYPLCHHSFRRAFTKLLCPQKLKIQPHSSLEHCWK

O=C(O)C(=O)O.O=C(c1ccc(F)cc1)c1ccc(OCCCCCN2CCCCC2)cc1 [Compound 6, (4-Fluorophenyl) (4-((5-(piperidin-1-yl)pentyl)oxy)phenyl)methanone hydrogen oxalate]
Papp (in vitro): 6.3 ×10⁻⁶ cm/s | concentration decreasing HepG2 cell viability (hepatoma HepG2 cells; 72 h incubation, MTS): ≥ 10 µM | concentration range with lack of hepatotoxicity effect (hepatoma HepG2 cells; HepG2 cells): 0.1 to 1 µM | latency time in the retention trial (mice [1]; 15 mg/kg i.p. in scopolamine-treated mice): 47.07 ± 17.56 | latency time in the retention trial (mice [1]; 15 mg/kg i.p., without scopolamine): 151.89 ± 5.46 | latency time in the retention trial (mice [1]; 30 mg/kg i.p. in scopolamine-treated mice): 51.56 ± 21.17 | % biotransformed ([2]; MLMs, 120 min, UPLC): around 34% | % Remaining ([2]; MLMs, 120 min incubation): 65.95% | Metabolic Pathway ([2]; MLMs, metabolites M1, M2, M3): reduction of carbonyl group hydroxylation reduction of carbonyl group, hydroxylation | metabolic stability (in words) ([2]; mouse liver microsomes): moderate metabolic stability | remaining at 2 h ([2]; mouse, mouse liver microsomes, pH 7.4, MLMs, 120 min incubation): 66% | mechanism of eeAChE inhibition (eeAChE): non-competitive | highest non-toxic concentration [3]: 10 µM | inhibition at 1 µM (hMAO B): 25% | IC50 [4]: 170 nM and 172 nM | IC50 [5]: 1160 nM | Ki (human H3R): 8 nM | IC50 [6]: 2310 nM | Pe ± SD [7]: 6.3 ± 0.6 10^−6 cm/s | effect on viability (MTS test) [8]: no increase in the viability | effect on necrosis (LDH test) [9]: slight inhibition of the necrosis process | IC50 [10]: 9590 nM | ED50 (mice [11]; 0–5 min after formalin, read-out: ED50 phase I (acute pain)): 20.9 mg/kg | ED50 (mice [11]; 15–30 min after formalin, read-out: ED50 phase II (inflammatory pain)): 17.5 mg/kg | mechanism of eqBuChE inhibition (eqBuChE): mix type
